This is an account of results in US8063071B2 (GlaxoSmithKline, LLC, priority 2007, dated 2011).

Each structure is given as a SMILES string. Where a name gives a salt, the structure may show the parent alone. A value given as a limit tells only on which side of the number the result lay.

Assay [1] relates to human monocyte stimulated cytokine production (TNF-α). The assay is described as follows: Monocyte assay (LPS-stimulated TNF-α production). The class given is cell-based. Conditions: for inhibition at 0.3 µM: read-out: inhibition at 300 nM in the monocyte assay; for IC50: 24 h, 200 ng/mL LPS, TNF-α by ELISA. The procedure, abridged: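 Human CD14+ monocytes were purified from blood and plated at 1×10^6 cells/mL in RPMI 1640 with 10% FBS. Compound was added 30 min before stimulation with 200 ng/mL LPS (0.1% DMSO final), followed by 24 hrs at 37 C. Supernatant TNF-α was measured by ELISA, and viability by trypan blue exclusion.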

Assay [2] has as its target T1, Recombinant human IKKβ (residues 1-737) (Homo sapiens, UniProt O14920).
T1 construct: Recombinant human IKKβ (residues 1-737); GST (C); made in house
T1 sequence (O14920 1-737): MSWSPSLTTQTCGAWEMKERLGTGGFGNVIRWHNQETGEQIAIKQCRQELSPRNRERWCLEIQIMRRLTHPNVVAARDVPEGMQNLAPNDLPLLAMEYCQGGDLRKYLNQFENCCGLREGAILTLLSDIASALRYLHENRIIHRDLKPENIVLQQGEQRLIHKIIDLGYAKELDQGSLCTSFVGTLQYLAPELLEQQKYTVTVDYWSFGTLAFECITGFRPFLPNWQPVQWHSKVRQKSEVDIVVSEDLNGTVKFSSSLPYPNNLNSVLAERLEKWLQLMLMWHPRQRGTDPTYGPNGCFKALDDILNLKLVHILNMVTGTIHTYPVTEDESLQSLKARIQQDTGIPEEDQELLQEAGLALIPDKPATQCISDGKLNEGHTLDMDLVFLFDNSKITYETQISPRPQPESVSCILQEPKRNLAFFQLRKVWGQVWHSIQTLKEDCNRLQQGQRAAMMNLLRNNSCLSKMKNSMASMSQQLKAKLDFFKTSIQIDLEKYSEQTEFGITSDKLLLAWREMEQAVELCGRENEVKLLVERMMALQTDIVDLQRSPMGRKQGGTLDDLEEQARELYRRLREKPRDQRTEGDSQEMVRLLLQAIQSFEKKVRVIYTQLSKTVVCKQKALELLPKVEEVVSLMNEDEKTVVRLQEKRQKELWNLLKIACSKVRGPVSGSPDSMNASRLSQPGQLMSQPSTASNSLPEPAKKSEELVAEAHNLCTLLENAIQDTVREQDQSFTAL
The assay can be described thus: IKK2 assay (TR-FRET). The class given is biochemical. As to conditions: ATP 1 μM final, read-out: pIC50 against IKK2 (converted). Summed up:
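Baculovirus-expressed C-terminal GST-tagged IKKβ (0.5-5 nM final) in HEPES pH 7.4, MgCl2, CHAPS, DTT, BSA with 1.7% DMSO; 25 nM GST-IB substrate and 1 μM ATP, 15 min at room temperature. EDTA stop; phospho-Ser32/36 detected by Eu-antibody/APC-anti-GST TR-FRET, 665/620 nm ratio.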
A general note: In TR-FRET formats the signal depends on donor and acceptor labels being close together.

By inhibition is commonly meant the change of the read-out against control, counted positive when it falls. As to `CCCN(CCC)CCc1cccc(-c2cc(C(N)=O)c3[nH]cc(C4CCN(S(=O)(=O)CC)CC4)c3c2)c1` [Example 349, 5-{3-[2-(dipropylamino)ethyl]phenyl}-3-[1-(ethylsulfonyl)-4-piperidinyl]-1H-indole-7-carboxamide trifluoroacetate], the inhibition at 0.3 µM in assay [1] is 0 to 60%. Further, in assay [2], the IC50 was no more than 10 µM.
For `CCS(=O)(=O)N1CCC(c2c[nH]c3c(C(N)=O)cc(-c4cccc(CNCCn5nc(C)cc5C)c4)cc23)CC1` [Example 350, 5-[3-({[2-(3,5-dimethyl-1H-pyrazol-1-yl)ethyl]amino}methyl)phenyl]-3-[1-(ethylsulfonyl)-4-piperidinyl]-1H-indole-7-carboxamide trifluoroacetate], in that order: 0 to 60% and no more than 10 µM.
The like results for `CCS(=O)(=O)N1CCC(c2c[nH]c3c(C(N)=O)cc(-c4csc(CN5CCOCC5)n4)cc23)CC1` [Example 351, 3-[1-(ethylsulfonyl)-4-piperidinyl]-5-[2-(4-morpholinylmethyl)-1,3-thiazol-4-yl]-1H-indole-7-carboxamide trifluoroacetate] were, in that order, 0 to 60% and no more than 10 µM.
The like results for `CCS(=O)(=O)N1CCC(c2c[nH]c3c(C(N)=O)cc(-c4csc(CNCC(C)C)n4)cc23)CC1` [Example 352, 3-[1-(ethylsulfonyl)-4-piperidinyl]-5-(2-{[(2-methylpropyl)amino]methyl}-1,3-thiazol-4-yl)-1H-indole-7-carboxamide trifluoroacetate] were, in that order, 0 to 60% and no more than 10 µM.
As for `CCS(=O)(=O)N1CCC(c2c[nH]c3c(C(N)=O)cc(-c4csc(CN5CCCC5)n4)cc23)CC1` [Example 353, 3-[1-(ethylsulfonyl)-4-piperidinyl]-5-[2-(1-pyrrolidinylmethyl)-1,3-thiazol-4-yl]-1H-indole-7-carboxamide], in assay [1], the IC50 is no more than 1.5 µM and the inhibition at 0.3 µM lay within 0 to 60%. In addition, the IC50 in assay [2] was no more than 10 µM.
Consider `CCS(=O)(=O)N1CCC(c2c[nH]c3c(C(N)=O)cc(-c4csc(CN(C)C)n4)cc23)CC1` [Example 355, 5-{2-[(dimethylamino)methyl]-1,3-thiazol-4-yl}-3-[1-(ethylsulfonyl)-4-piperidinyl]-1H-indole-7-carboxamide trifluoroacetate], for which the inhibition at 0.3 µM in assay [1] was 0 to 60%. For the same molecule, in assay [2], the IC50 was no more than 10 µM.
As to `CCN(C)Cc1nc(-c2cc(C(N)=O)c3[nH]cc(C4CCN(S(=O)(=O)CC)CC4)c3c2)cs1` [Example 356, 5-(2-{[ethyl(methyl)amino]methyl}-1,3-thiazol-4-yl)-3-[1-(ethylsulfonyl)-4-piperidinyl]-1H-indole-7-carboxamide trifluoroacetate], the results for the IC50 in assay [1] and in assay [2] were no more than 1.5 µM and no more than 10 µM, respectively.
Consider `CCS(=O)(=O)N1CCC(c2c[nH]c3c(C(N)=O)cc(-c4cc(C#N)cc(CNCC(C)C)c4)cc23)CC1` [Example 357, 5-(3-cyano-5-{[(2-methylpropyl)amino]methyl}phenyl)-3-[1-(ethylsulfonyl)-4-piperidinyl]-1H-indole-7-carboxamide trifluoroacetate], for which the IC50 in assay [1] is no more than 1.5 µM; in assay [2] it was no more than 10 µM.
`CCS(=O)(=O)N1CCC(c2c[nH]c3c(C(N)=O)cc(-c4cc(C#N)cc(CN(C)C)c4)cc23)CC1` [Example 358, 5-{3-cyano-5-[(dimethylamino)methyl]phenyl}-3-[1-(ethylsulfonyl)-4-piperidinyl]-1H-indole-7-carboxamide trifluoroacetate]: the IC50 was no more than 1.5 µM in assay [1] and no more than 10 µM in assay [2].
Turning to `CCS(=O)(=O)N1CCC(c2c[nH]c3c(C(N)=O)cc(-c4cccc(CNC(=O)c5ccc(F)cc5)c4)cc23)CC1` [Example 360, 3-[1-(ethylsulfonyl)-4-piperidinyl]-5-[3-({[(4-fluorophenyl)carbonyl]amino}methyl)phenyl]-1H-indole-7-carboxamide trifluoroacetate], the IC50 in assay [1] was greater than 1 µM; in assay [2], no more than 10 µM.
`CCS(=O)(=O)N1CCC(c2c[nH]c3c(C(N)=O)cc(-c4cccc(CNC(=O)c5ccco5)c4)cc23)CC1` [Example 361, 3-[1-(ethylsulfonyl)-4-piperidinyl]-5-(3-{[(2-furanylcarbonyl)amino]methyl}phenyl)-1H-indole-7-carboxamide trifluoroacetate]: the IC50 is no more than 1.5 µM in assay [1] and no more than 10 µM in assay [2].
Take `CCS(=O)(=O)N1CCC(c2c[nH]c3c(C(N)=O)cc(-c4cccc(CNC(=O)C5CCCC5)c4)cc23)CC1` [Example 362, 5-(3-{[(cyclopentylcarbonyl)amino]methyl}phenyl)-3-[1-(ethylsulfonyl)-4-piperidinyl]-1H-indole-7-carboxamide trifluoroacetate]: the IC50 in assay [1] was greater than 1 µM; in assay [2], no more than 10 µM.
In the case of `CCS(=O)(=O)N1CCC(c2c[nH]c3c(C(N)=O)cc(-c4cccc(CNC(=O)c5cc6ccccc6s5)c4)cc23)CC1` [Example 363, 5-(3-{[(1-benzothien-2-ylcarbonyl)amino]methyl}phenyl)-3-[1-(ethylsulfonyl)-4-piperidinyl]-1H-indole-7-carboxamide], the IC50 is greater than 1 µM in assay [1] and no more than 10 µM in assay [2].
For `CCS(=O)(=O)N1CCC(c2c[nH]c3c(C(N)=O)cc(-c4cccc(CNC(=O)C5CCN(C(C)=O)CC5)c4)cc23)CC1` [Example 364, 5-[3-({[(1-acetyl-4-piperidinyl)carbonyl]amino}methyl)phenyl]-3-[1-(ethylsulfonyl)-4-piperidinyl]-1H-indole-7-carboxamide], the IC50 is no more than 1.5 µM in assay [1] and no more than 10 µM in assay [2].
For the molecule `CCS(=O)(=O)N1CCC(c2c[nH]c3c(C(N)=O)cc(-c4cccc(CNC(=O)c5cccn5C)c4)cc23)CC1` [Example 365, 3-[1-(ethylsulfonyl)-4-piperidinyl]-5-[3-({[(1-methyl-1H-pyrrol-2-yl)carbonyl]amino}methyl)phenyl]-1H-indole-7-carboxamide], the IC50 was greater than 1 µM in assay [1] and no more than 10 µM in assay [2].
Consider `CCS(=O)(=O)N1CCC(c2c[nH]c3c(C(N)=O)cc(-c4cccc(CNC(=O)Cc5cccs5)c4)cc23)CC1` [Example 366, 3-[1-(ethylsulfonyl)-4-piperidinyl]-5-(3-{[(2-thienylacetyl)amino]methyl}phenyl)-1H-indole-7-carboxamide], for which the values for the IC50 in assay [1] and in assay [2] were no more than 1.5 µM and no more than 10 µM, respectively.
The like results for `CCS(=O)(=O)N1CCC(c2c[nH]c3c(C(N)=O)cc(-c4cccc(CNC(=O)C5CCC5)c4)cc23)CC1` [Example 367, 5-(3-{[(cyclobutylcarbonyl)amino]methyl}phenyl)-3-[1-(ethylsulfonyl)-4-piperidinyl]-1H-indole-7-carboxamide] were, in that order, no more than 1.5 µM and no more than 10 µM.
For `CCS(=O)(=O)N1CCC(c2c[nH]c3c(C(N)=O)cc(-c4cccc(CNC(=O)C5CC5)c4)cc23)CC1` [Example 368, 5-(3-{[(cyclopropylcarbonyl)amino]methyl}phenyl)-3-[1-(ethylsulfonyl)-4-piperidinyl]-1H-indole-7-carboxamide], in that order: no more than 1.5 µM and no more than 10 µM.
For `CCS(=O)(=O)N1CCC(c2c[nH]c3c(C(N)=O)cc(-c4cccc(CNS(=O)(=O)C5CC5)c4)cc23)CC1` [Example 369, 5-(3-{[(cyclopropylsulfonyl)amino]methyl}phenyl)-3-[1-(ethylsulfonyl)-4-piperidinyl]-1H-indole-7-carboxamide], in that order: no more than 1.5 µM and no more than 10 µM.
Turning to `CCS(=O)(=O)N1CCC(c2c[nH]c3c(C(N)=O)cc(-c4cccc(CNS(=O)(=O)c5cc(Cl)ccc5Cl)c4)cc23)CC1` [Example 370, 5-[3-({[(2,5-dichlorophenyl)sulfonyl]amino}methyl)phenyl]-3-[1-(ethylsulfonyl)-4-piperidinyl]-1H-indole-7-carboxamide], the IC50 is no more than 1.5 µM in assay [1] and no more than 10 µM in assay [2].
For `CCS(=O)(=O)N1CCC(c2c[nH]c3c(C(N)=O)cc(-c4cccc(CNS(=O)(=O)c5ccc(Br)cc5)c4)cc23)CC1` [Example 371, 5-[3-({[(4-bromophenyl)sulfonyl]amino}methyl)phenyl]-3-[1-(ethylsulfonyl)-4-piperidinyl]-1H-indole-7-carboxamide], in that order: no more than 1.5 µM and no more than 10 µM.
